Source: patent US9162992B2, “Compounds and compositions for treatment of breathing control disorders or diseases” (GALLEON PHARMACEUTICALS, INC., priority 2010, dated 2015)

Legend:
[1] = Stability as a function of pH 2-6 (1 mg/mL, 0.25 mg/mL at pH 6; 10 mM citric acid and glycine); format: physicochemical; parameters: growth in impurities / Assay: unit not given here; settings: for Impurities: in %
Description: Buffer solutions containing ca. 10 mM each of citric acid and glycine in the pH range 2-6 were prepared by titrating 250 mL of a single stock containing both buffer agents with 1N NaOH/1N HCl and removing 50 mL aliquots at predetermined pH values. XXXVI solutions at 1 mg/mL were prepared in buffers of pH 2-5 by dissolving ˜25 mg of XXXVI in ˜23 mL of a given buffer, adjusting the pH to the target and making up the volume to 25.0 mL in a volumetric flask. (XXXVI) solution at pH 6 was prepared similarly, but at a lower drug concentration of 0.25 mg/mL using 6.68 mg of (XXXVI).
Each of the buffered XXXV solutions was filtered through a 0.2 μm polyether sulfone syringe filter into a volumetric flask, which had been previously rinsed with 70% ethanol and dried in a laminar flow hood. Following filtration, each buffered (XXXV) solution was split into 10 aliquots (9 aliquots of 2.5 mL each and 1 aliquot of 2 mL) in 5 mL serum vials previously rinsed with 70% ethanol and dried in a laminar flow hood. Filtration and preparation of aliquots were performed in a laminar flow hood. The 2 mL aliquot of each buffered (XXXV) solution was submitted for T0 analysis (HPLC assay and related substances).
Of the nine 2.5 mL aliquots, three aliquots were stored at each 40° C. and 60° C., two aliquots were stored at 25° C. and one aliquot was stored at −70° C. Samples stored at 40° C. and at 60° C. were evaluated for physical appearance, pH, assay and related substances after 1 week, 2 weeks and 4 weeks of storage. Samples at 25° C. and −70° C. served as controls to be analyzed if necessary.

[2] = molecular target: T1, BK potassium channel expressed in GH3 cells (Rattus norvegicus, UniProt Q62976); assay: BK potassium channel current in GH3 cells, inside-out patches; format: cell-based
T1 construct: endogenous in cells; host or cells: GH3 cells
Description: Stock solutions of the test article were prepared in dimethylsulfoxide (DMSO) and stored frozen. Test article concentrations were prepared fresh daily by diluting stock solutions into a physiological saline solution (composition in mM): KCl, 125; CaCl2, 8.5; HEPES, 10; EGTA, 11.25; pH adjusted to 7.2 with KOH (prepared weekly and refrigerated until used). All test solutions contained 0.1% DMSO.
GH3 cells were grown in culture using standard procedures. Ionic currents were measured from inside-out patches of GH3 cells. Channel activity was monitored in symmetrical K^+ conditions with a holding potential of −60 mV. Activities before and in the presence of each concentration of test articles were recorded for ≧3 minutes, respectively.
Data acquisition and analyses were performed using the suite of pCLAMP (Ver. 8.2) programs (MDS-AT, Sunnyvale, Calif. Percent inhibition by test article was calculated using the following equation: 100*(NPocontrol−NPotest)/NPocontrol Results

T1 sequence (Q62976 whole entry): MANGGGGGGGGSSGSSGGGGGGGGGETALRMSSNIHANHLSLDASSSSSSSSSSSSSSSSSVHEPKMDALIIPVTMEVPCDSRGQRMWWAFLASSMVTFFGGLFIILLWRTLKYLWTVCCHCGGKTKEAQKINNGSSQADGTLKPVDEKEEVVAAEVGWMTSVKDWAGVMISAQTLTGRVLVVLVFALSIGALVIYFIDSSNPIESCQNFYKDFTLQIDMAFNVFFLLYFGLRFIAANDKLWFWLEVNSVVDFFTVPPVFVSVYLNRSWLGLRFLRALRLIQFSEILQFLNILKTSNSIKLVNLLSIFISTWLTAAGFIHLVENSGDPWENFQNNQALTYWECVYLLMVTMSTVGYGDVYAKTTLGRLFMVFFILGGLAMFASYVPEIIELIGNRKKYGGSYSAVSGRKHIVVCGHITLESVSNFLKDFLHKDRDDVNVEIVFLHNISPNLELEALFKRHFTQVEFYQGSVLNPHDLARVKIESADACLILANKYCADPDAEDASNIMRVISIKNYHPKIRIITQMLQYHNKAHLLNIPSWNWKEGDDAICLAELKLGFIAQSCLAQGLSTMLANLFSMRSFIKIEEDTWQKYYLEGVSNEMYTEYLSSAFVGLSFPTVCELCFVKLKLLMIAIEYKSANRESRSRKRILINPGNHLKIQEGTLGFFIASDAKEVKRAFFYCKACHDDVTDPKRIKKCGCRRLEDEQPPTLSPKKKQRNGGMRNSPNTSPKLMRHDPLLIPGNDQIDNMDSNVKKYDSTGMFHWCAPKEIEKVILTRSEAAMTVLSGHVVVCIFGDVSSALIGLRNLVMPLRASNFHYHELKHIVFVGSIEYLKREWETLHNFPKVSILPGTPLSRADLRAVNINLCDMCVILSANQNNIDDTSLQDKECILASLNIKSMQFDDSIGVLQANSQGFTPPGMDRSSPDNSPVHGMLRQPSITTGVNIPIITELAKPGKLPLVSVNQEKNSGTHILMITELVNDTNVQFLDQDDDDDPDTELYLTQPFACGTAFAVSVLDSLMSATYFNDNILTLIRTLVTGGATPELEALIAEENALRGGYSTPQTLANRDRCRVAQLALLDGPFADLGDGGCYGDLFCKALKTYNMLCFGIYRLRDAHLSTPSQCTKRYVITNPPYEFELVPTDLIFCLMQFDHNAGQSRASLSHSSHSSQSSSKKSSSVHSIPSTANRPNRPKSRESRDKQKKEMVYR

SMILES: CCCNc1nc(NCCC)nc(N(C)OC)n1 [XXXV, N-(4,6-Bis-n-propylamino-[1,3,5]triazin-2-yl)-N,O-dimethyl-hydroxylamine]
- physical appearance ([1]; all samples, up to 4 weeks at 40° C. and 60° C.): remained clear, colorless and particle free
- stability at pH 2 compared to remaining pH values ([1]; assay and impurities data): significantly less stable at pH 2
- growth in impurities ([1]; pH 3-6, 40° C. and 60° C.): > 0.2
- Assay ([1]; target pH 2, 40° C. 1 wk): 0.997
- pH ([1]; target pH 2, 40° C. 1 wk): 2.02
- Impurities ([1]; target pH 2, 40° C. 1 wk): 0.58
- Assay ([1]; target pH 2, 40° C. 2 wk): 0.975
- pH ([1]; target pH 2, 40° C. 2 wk): 1.98
- Impurities ([1]; target pH 2, 40° C. 2 wk): 1.48
- Assay ([1]; target pH 2, 40° C. 4 wk): 0.970
- pH ([1]; target pH 2, 40° C. 4 wk): 2.00
- Impurities ([1]; target pH 2, 40° C. 4 wk): 2.49
- Assay ([1]; target pH 2, 60° C. 1 wk): 0.929
- pH ([1]; target pH 2, 60° C. 1 wk): 2.00
- Impurities ([1]; target pH 2, 60° C. 1 wk): 3.83
- Assay ([1]; target pH 2, 60° C. 2 wk): 0.754
- pH ([1]; target pH 2, 60° C. 2 wk): 1.99
- Impurities ([1]; target pH 2, 60° C. 2 wk): 9.89
- Assay ([1]; target pH 2, 60° C. 4 wk): 0.754
- pH ([1]; target pH 2, 60° C. 4 wk): 2.01
- Impurities ([1]; target pH 2, 60° C. 4 wk): 14.34
- Assay ([1]; target pH 2, initial): 1.02
- pH ([1]; target pH 2, initial): 1.96
- Assay ([1]; target pH 3, 40° C. 1 wk): 0.984
- pH ([1]; target pH 3, 40° C. 1 wk): 3.05
- Assay ([1]; target pH 3, 40° C. 2 wk): 0.987
- pH ([1]; target pH 3, 40° C. 2 wk): 3.05
- Impurities ([1]; target pH 3, 40° C. 2 wk): 0.19
- Assay ([1]; target pH 3, 40° C. 4 wk): 0.991
- pH ([1]; target pH 3, 40° C. 4 wk): 3.06
- Impurities ([1]; target pH 3, 40° C. 4 wk): 0.41
- Assay ([1]; target pH 3, 60° C. 1 wk): 0.971
- pH ([1]; target pH 3, 60° C. 1 wk): 3.07
- Impurities ([1]; target pH 3, 60° C. 1 wk): 0.71
- Assay ([1]; target pH 3, 60° C. 2 wk): 0.952
- pH ([1]; target pH 3, 60° C. 2 wk): 3.03
- Impurities ([1]; target pH 3, 60° C. 2 wk): 1.20
- Assay ([1]; target pH 3, 60° C. 4 wk): 0.952
- pH ([1]; target pH 3, 60° C. 4 wk): 3.07
- Impurities ([1]; target pH 3, 60° C. 4 wk): 2.19
- Assay ([1]; target pH 3, initial): 0.984
- pH ([1]; target pH 3, initial): 3.02
- Assay ([1]; target pH 4, 40° C. 1 wk): 0.999
- pH ([1]; target pH 4, 40° C. 1 wk): 3.94
- Assay ([1]; target pH 4, 40° C. 2 wk): 1.006
- pH ([1]; target pH 4, 40° C. 2 wk): 3.96
- Impurities ([1]; target pH 4, 40° C. 2 wk): 0.17
- Assay ([1]; target pH 4, 40° C. 4 wk): 1.012
- pH ([1]; target pH 4, 40° C. 4 wk): 3.96
- Impurities ([1]; target pH 4, 40° C. 4 wk): 0.22
- Assay ([1]; target pH 4, 60° C. 1 wk): 0.992
- pH ([1]; target pH 4, 60° C. 1 wk): 3.94
- Assay ([1]; target pH 4, 60° C. 2 wk): 0.979
- pH ([1]; target pH 4, 60° C. 2 wk): 3.96
- Impurities ([1]; target pH 4, 60° C. 2 wk): 0.52
- Assay ([1]; target pH 4, 60° C. 4 wk): 0.979
- pH ([1]; target pH 4, 60° C. 4 wk): 3.97
- Impurities ([1]; target pH 4, 60° C. 4 wk): 1.02
- Assay ([1]; target pH 4, initial): 1.01
- pH ([1]; target pH 4, initial): 4.00
- Assay ([1]; target pH 5, 40° C. 1 wk): 0.989
- pH ([1]; target pH 5, 40° C. 1 wk): 4.90
- Assay ([1]; target pH 5, 40° C. 2 wk): 0.992
- pH ([1]; target pH 5, 40° C. 2 wk): 4.95
- Impurities ([1]; target pH 5, 40° C. 2 wk): 0.26
- Assay ([1]; target pH 5, 40° C. 4 wk): 0.977
- pH ([1]; target pH 5, 40° C. 4 wk): 4.97
- Assay ([1]; target pH 5, 60° C. 1 wk): 0.977
- pH ([1]; target pH 5, 60° C. 1 wk): 4.92
- Assay ([1]; target pH 5, 60° C. 2 wk): 0.947
- pH ([1]; target pH 5, 60° C. 2 wk): 4.93
- Impurities ([1]; target pH 5, 60° C. 2 wk): 0.62
- Assay ([1]; target pH 5, 60° C. 4 wk): 0.947
- pH ([1]; target pH 5, 60° C. 4 wk): 4.98
- Impurities ([1]; target pH 5, 60° C. 4 wk): 1.10
- Assay ([1]; target pH 5, initial): 1.01
- pH ([1]; target pH 5, initial): 5.03
- Assay ([1]; target pH 6, 40° C. 1 wk): 0.257
- pH ([1]; target pH 6, 40° C. 1 wk): 5.88
- Assay ([1]; target pH 6, 40° C. 2 wk): 0.253
- pH ([1]; target pH 6, 40° C. 2 wk): 6.02
- Impurities ([1]; target pH 6, 40° C. 2 wk): 0.25
- Assay ([1]; target pH 6, 40° C. 4 wk): 0.251
- pH ([1]; target pH 6, 40° C. 4 wk): 5.98
- Impurities ([1]; target pH 6, 40° C. 4 wk): 0.28
- Assay ([1]; target pH 6, 60° C. 1 wk): 0.247
- pH ([1]; target pH 6, 60° C. 1 wk): 5.87
- Impurities ([1]; target pH 6, 60° C. 1 wk): 0.56
- Assay ([1]; target pH 6, 60° C. 2 wk): 0.234
- pH ([1]; target pH 6, 60° C. 2 wk): 6.03
- Impurities ([1]; target pH 6, 60° C. 2 wk): 0.87
- Assay ([1]; target pH 6, 60° C. 4 wk): 0.234
- pH ([1]; target pH 6, 60° C. 4 wk): 6.01
- Impurities ([1]; target pH 6, 60° C. 4 wk): 1.65
- Assay ([1]; target pH 6, initial): 0.260
- pH ([1]; target pH 6, initial): 6.05
- reduction of total channel open probability ([2]; 10 μM): 42%
- inhibition of the native BK channel ([2]; 1 and 10 μM): concentration—dependent inhibition
- Inhibition (%), Average ([2]; (XXXV) 1 (mM as printed)): 22.3%
- NPo, Average ([2]; (XXXV) 1 (mM as printed)): 0.014
- Inhibition (%), Average ([2]; (XXXV) 10 (mM as printed)): 41.4%
- NPo, Average ([2]; (XXXV) 10 (mM as printed)): 0.020
